According to ChEMBL document CHEMBL2069178, “A combined targeted/phenotypic approach for the identification of new antiangiogenics agents active on a zebrafish model: from in silico screening to cyclodextrin formulation” (Bioorg Med Chem Lett, 2012):
The source made the active and inactive calls. The calls are words filed in the database; no cut-off is given here.

How the values were obtained:
HUVEC [1] = assay: Antiangiogenic activity in HUVEC co-cultured with vascular smooth muscle cells assessed as inhibition of network formation at 1.8 to 16 uM after 72 hrs; format: functional, cell-based; conditions: Homo sapiens
HUVEC [2] = assay: Cytotoxicity against HUVEC co-cultured with vascular smooth muscle cells assessed as rounded-up, unconnected and unicellular morphology phenotype; format: cell-based; conditions: human
[3] = Apparent permeability of the compound assessed as membrane permeation by PAMPA; format: ADME
[4] = Permeability of the compound assessed as membrane retention by PAMPA; format: ADME
Liver microsomes = assay: Metabolic stability of the compound in human liver microsomes assessed as compound remaining; format: ADME, Microsome
Danio rerio = species on record: Danio rerio; assay: Toxicity in embryos of zebrafish assessed as induction of growth malformation at 0.5 to 2 uM treated 16 hrs post fertilization measured after 24 hrs; format: organism-based; conditions: in vivo
HUVEC [5] = assay: Antiangiogenic activity in HUVEC co-cultured with vascular smooth muscle cells assessed as inhibition of network formation at 10 to 15 uM after 72 hrs; format: functional, cell-based; conditions: Homo sapiens
HUVEC [6] = assay: Antiangiogenic activity in HUVEC co-cultured with vascular smooth muscle cells assessed as inhibition of network formation at 1.8 after 72 hrs; format: functional, cell-based; conditions: Homo sapiens
HUVEC [7] = assay: Antiangiogenic activity in HUVEC co-cultured with vascular smooth muscle cells assessed as inhibition of cell growth at […] after 72 hrs; format: functional, cell-based; conditions: Homo sapiens
HUVEC [8] = assay: Antiangiogenic activity in HUVEC co-cultured with vascular smooth muscle cells assessed as inhibition of network formation at […] after 72 hrs; format: functional, cell-based; conditions: Homo sapiens
HUVEC [9] = assay: Antiangiogenic activity in HUVEC co-cultured with vascular smooth muscle cells assessed as inhibition of network formation at 1.8 to 15 uM after 72 hrs; format: functional, cell-based; conditions: Homo sapiens
[10] = target: T1, Vascular endothelial growth factor receptor 2 (Homo sapiens, UniProt P35968); assay: Inhibition of VEGFR2 expressed in porcine aortic endothelial cells; format: cell-based, Endothelial cell
[11] = target: Epidermal growth factor receptor (Homo sapiens) (UniProt P00533); assay: Inhibition of HER-1 at 10 uM
[12] = target: T1, Vascular endothelial growth factor receptor 2; assay: Inhibition of VEGFR-2 at 10 uM
[13] = target: Receptor-type tyrosine-protein kinase FLT3 (Homo sapiens) (UniProt P36888); assay: Inhibition of Flt-3 at 10 uM
[14] = target: Insulin-like growth factor 1 receptor (Homo sapiens) (UniProt P08069); assay: Inhibition of IGF-1R at 10 uM
Homo sapiens [15] = species on record: Homo sapiens; assay: Inhibition of PKA at 10 uM
[16] = target: Cyclin-dependent kinase 2 (Homo sapiens) (UniProt P24941); assay: Inhibition of CDK2A at 10 uM
Homo sapiens [17] = species on record: Homo sapiens; assay: Inhibition of PKB at 10 uM
[18] = system: Serine/threonine-protein kinase B-raf (Homo sapiens), P15056 [V600E]; assay: Inhibition of B-Raf V599E mutant at 10 uM
[19] = target: Angiopoietin-1 receptor (Homo sapiens) (UniProt Q02763); assay: Inhibition of Tek at 10 uM
[20] = target: Proto-oncogene tyrosine-protein kinase Src (Homo sapiens) (UniProt P12931); assay: Inhibition of Src at 10 uM
[21] = target: Hepatocyte growth factor receptor (Homo sapiens) (UniProt P08581); assay: Inhibition of Met at 10 uM
[22] = target: Proto-oncogene tyrosine-protein kinase receptor Ret (Homo sapiens) (UniProt P07949); assay: Inhibition of Ret at 10 uM
[23] = target: Tyrosine-protein kinase JAK2 (Homo sapiens) (UniProt O60674); assay: Inhibition of Jak2 at 10 uM
[24] = target: Ephrin type-B receptor 4 (Homo sapiens) (UniProt P54760); assay: Inhibition of EphB4 at 10 uM
Homo sapiens [25] = species on record: Homo sapiens; assay: Inhibition of FGFR3 […] mutant at 10 uM
[26] = target: Tyrosine-protein kinase receptor UFO (Homo sapiens) (UniProt P30530); assay: Inhibition of Axl at 10 uM
[27] = target: Focal adhesion kinase 1 (Homo sapiens) (UniProt Q05397); assay: Inhibition of FAK at 10 uM
[28] = target: 3-phosphoinositide-dependent protein kinase 1 (Homo sapiens) (UniProt O15530); assay: Inhibition of PDK1 at 10 uM
[29] = target: Proto-oncogene tyrosine-protein kinase Src (Homo sapiens) (UniProt P12931); assay: Inhibition of c-Src at 100 uM
[30] = target: Tyrosine-protein kinase ABL1 (Homo sapiens, UniProt P00519); assay: Inhibition of Abl
HUVEC [31] = assay: Cytotoxicity against HUVEC co-cultured with vascular smooth muscle cells assessed as cell death at 16 uM; format: cell-based; conditions: human

Proto-oncogene tyrosine-protein kinase Src (Homo sapiens), sequence (P12931 2-536 limits assumed): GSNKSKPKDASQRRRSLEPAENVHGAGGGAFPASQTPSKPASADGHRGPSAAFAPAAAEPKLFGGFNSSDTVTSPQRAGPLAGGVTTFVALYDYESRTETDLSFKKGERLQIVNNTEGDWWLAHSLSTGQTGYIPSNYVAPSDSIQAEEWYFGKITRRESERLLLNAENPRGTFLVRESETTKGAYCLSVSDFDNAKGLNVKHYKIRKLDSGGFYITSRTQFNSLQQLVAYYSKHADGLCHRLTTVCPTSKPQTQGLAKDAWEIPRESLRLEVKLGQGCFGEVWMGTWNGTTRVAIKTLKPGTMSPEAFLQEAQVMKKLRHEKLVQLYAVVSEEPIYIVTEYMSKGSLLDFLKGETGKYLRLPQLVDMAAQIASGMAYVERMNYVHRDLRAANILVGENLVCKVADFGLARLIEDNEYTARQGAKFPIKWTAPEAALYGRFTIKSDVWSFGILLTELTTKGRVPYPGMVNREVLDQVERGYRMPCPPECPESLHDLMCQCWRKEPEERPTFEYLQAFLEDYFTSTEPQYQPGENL
T1 sequence (P35968 whole entry): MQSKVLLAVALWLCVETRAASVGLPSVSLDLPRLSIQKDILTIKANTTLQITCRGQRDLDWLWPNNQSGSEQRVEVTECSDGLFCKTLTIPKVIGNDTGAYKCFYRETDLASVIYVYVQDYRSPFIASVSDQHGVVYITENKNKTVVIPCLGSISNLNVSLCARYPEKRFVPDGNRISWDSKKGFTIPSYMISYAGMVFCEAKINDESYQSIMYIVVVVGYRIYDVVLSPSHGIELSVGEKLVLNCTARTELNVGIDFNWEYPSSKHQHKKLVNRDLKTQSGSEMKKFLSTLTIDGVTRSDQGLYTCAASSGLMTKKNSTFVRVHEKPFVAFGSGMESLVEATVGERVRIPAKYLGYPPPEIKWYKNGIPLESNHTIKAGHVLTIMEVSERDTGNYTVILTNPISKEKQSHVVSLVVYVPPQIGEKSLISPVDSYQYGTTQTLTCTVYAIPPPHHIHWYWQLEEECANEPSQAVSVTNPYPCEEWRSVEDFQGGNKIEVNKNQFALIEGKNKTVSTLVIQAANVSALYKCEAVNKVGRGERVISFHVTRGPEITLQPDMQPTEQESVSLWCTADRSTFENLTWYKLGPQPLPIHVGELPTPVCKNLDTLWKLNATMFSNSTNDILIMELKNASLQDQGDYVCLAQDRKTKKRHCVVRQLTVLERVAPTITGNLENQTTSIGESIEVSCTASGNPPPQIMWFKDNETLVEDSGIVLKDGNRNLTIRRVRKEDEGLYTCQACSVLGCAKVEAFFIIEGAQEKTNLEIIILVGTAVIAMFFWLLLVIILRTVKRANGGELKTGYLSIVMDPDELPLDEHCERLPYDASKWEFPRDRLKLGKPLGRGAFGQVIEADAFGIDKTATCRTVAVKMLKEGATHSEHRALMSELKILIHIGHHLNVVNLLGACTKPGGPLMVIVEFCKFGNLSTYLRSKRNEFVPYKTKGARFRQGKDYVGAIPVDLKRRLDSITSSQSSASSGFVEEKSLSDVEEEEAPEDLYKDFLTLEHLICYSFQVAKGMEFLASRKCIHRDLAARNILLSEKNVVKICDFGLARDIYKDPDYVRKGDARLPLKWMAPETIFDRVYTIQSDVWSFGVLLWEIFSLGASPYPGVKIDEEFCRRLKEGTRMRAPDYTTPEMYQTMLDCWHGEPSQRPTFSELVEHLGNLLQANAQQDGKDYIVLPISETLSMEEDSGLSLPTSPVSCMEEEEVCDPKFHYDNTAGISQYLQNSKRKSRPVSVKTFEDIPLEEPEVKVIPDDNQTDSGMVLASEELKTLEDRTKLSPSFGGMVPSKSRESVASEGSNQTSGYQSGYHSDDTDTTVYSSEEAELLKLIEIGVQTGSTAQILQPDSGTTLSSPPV
Focal adhesion kinase 1 (Homo sapiens), sequence (Q05397 2-1052 limits assumed): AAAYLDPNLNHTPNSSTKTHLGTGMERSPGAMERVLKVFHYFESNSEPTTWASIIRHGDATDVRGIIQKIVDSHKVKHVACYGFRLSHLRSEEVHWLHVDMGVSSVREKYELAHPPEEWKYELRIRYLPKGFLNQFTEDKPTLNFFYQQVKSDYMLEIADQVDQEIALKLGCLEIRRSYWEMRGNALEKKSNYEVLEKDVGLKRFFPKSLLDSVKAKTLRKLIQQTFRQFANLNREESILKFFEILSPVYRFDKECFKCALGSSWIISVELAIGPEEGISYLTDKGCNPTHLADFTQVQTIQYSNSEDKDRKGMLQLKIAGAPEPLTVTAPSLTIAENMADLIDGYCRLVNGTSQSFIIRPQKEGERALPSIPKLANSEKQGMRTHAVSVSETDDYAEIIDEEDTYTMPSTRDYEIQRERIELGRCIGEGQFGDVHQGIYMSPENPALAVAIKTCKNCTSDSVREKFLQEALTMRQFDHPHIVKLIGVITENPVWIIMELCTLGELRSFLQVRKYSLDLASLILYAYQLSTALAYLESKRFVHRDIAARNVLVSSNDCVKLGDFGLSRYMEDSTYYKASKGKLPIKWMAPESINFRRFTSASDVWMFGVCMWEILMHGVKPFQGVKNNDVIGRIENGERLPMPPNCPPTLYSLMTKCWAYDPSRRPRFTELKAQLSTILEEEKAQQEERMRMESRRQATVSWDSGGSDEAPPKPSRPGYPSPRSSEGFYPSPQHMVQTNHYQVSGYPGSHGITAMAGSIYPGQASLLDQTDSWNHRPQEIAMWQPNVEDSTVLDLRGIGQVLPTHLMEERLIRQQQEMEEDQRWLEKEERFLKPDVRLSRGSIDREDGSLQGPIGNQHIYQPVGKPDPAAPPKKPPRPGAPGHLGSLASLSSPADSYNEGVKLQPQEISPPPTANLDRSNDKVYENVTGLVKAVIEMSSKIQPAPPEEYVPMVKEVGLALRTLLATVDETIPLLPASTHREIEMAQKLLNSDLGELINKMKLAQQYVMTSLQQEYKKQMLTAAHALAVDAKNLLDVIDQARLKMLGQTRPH
Serine/threonine-protein kinase B-raf (Homo sapiens), P15056 [V600E], sequence (P15056 whole entry V600E): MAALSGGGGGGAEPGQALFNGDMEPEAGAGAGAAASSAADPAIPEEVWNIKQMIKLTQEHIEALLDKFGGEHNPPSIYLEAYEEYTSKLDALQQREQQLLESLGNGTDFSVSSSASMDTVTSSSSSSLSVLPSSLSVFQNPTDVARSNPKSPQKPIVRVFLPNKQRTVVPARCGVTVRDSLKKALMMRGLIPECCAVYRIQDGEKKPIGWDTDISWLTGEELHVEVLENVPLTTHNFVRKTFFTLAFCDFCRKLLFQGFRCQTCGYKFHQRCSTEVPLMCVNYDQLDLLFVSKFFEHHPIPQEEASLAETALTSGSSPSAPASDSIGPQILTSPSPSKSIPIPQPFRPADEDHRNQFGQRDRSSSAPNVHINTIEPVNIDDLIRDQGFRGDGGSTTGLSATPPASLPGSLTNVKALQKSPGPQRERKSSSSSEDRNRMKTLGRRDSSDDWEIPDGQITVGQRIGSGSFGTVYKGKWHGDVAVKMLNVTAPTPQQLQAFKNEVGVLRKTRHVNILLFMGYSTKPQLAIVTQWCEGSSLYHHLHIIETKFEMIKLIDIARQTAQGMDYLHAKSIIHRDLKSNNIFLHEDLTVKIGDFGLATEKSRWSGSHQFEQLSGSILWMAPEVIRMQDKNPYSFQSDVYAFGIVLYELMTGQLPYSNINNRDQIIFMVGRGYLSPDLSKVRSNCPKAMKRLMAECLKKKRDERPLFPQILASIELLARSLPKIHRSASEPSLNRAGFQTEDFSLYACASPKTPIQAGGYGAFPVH
Tyrosine-protein kinase JAK2 (Homo sapiens), sequence (O60674 whole entry): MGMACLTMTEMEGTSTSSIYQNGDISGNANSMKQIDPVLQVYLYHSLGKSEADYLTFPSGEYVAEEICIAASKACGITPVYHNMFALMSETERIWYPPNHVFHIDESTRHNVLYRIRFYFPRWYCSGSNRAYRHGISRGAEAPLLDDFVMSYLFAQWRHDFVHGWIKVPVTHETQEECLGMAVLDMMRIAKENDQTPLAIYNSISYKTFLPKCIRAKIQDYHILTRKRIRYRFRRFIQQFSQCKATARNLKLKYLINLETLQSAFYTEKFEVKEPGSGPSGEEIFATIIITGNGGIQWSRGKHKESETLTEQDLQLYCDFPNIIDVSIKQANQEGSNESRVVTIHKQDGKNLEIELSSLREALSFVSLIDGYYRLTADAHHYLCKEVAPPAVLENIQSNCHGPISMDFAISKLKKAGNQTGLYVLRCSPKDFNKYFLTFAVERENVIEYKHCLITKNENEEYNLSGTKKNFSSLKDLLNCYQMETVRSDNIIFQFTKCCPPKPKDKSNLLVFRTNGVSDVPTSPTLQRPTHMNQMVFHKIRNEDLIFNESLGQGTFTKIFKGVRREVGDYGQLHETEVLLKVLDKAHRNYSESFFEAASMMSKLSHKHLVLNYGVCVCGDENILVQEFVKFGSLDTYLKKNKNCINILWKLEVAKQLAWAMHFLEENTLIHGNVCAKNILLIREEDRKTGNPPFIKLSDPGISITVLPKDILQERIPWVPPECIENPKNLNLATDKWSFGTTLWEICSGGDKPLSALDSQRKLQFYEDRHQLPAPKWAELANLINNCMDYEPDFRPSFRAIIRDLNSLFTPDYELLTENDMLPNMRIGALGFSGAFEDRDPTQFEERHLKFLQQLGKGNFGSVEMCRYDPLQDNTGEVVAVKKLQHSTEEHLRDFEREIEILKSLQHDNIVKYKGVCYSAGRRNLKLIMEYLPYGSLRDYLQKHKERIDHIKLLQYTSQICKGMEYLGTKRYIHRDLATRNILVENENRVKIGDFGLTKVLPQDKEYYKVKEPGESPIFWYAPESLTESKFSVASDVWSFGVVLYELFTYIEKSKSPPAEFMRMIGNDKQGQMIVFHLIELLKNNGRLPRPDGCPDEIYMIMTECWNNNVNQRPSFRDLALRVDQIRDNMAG

In the case of `Clc1cccc(Nc2nc(SCCN3CCOCC3)nc3c2cnn3CC(Cl)c2ccccc2)c1` (stereo unspecified), the inhibition (HUVEC [1]) is reported as “Active”, the Activity (HUVEC [2]) is reported as “Non-toxic” and the Papp [3] is reported as 3 ×10⁻⁶ cm/s. For the same compound, the permeability [4] was 47.7%, the Stability (Liver microsomes) was 92.5% and the Activity (Danio rerio) was “Toxic”.
In the case of `Cc1cn(-c2cc(NC(=O)c3ccc(C)c(Nc4nccc(-c5cccnc5)n4)c3)cc(C(F)(F)F)c2)cn1`, the inhibition (HUVEC [5]) is reported as “Active”, the inhibition (HUVEC [6]) is reported as “inactive” and the inhibition (HUVEC [7]) is reported as “Active”. The inhibition (HUVEC [8]) was “inactive”.
In the case of `Cc1nc(Nc2ncc(C(=O)Nc3c(C)cccc3Cl)s2)cc(N2CCN(CCO)CC2)n1`, the inhibition (HUVEC [9]) is reported as “Active”, the inhibition (HUVEC [7]) is reported as “Active” and the inhibition (HUVEC [8]) is reported as “inactive”.
In the case of `ClC(Cn1ncc2c(NCc3ccccc3)ncnc21)c1ccccc1` (stereo unspecified), the inhibition (HUVEC [1]) is reported as “Active”, the Activity (HUVEC [2]) is reported as “Non-toxic” and the IC50 [10] is reported as 1000 nM. The permeability [4] was 6%, the Stability (Liver microsomes) was 82% and the Activity (Danio rerio) was “Toxic”. The inhibition [11] was 56%, the inhibition [12] was 29% and the inhibition [13] was 13%. The inhibition [14] was 0%, the inhibition (Homo sapiens [15]) was 0% and the inhibition [16] was 8%. The inhibition (Homo sapiens [17]) was 17%, the inhibition [18] was 42% and the inhibition [19] was 6%. It also gave an inhibition [20] of 89%, an inhibition [21] of 10% and an inhibition [22] of 5%. For the same compound, the inhibition [23] was 6%, the inhibition [24] was 25% and the inhibition (Homo sapiens [25]) was 0%. It also gave an inhibition [26] of 8%, an inhibition [27] of 0% and an inhibition [28] of 0%.
In the case of `ClC(Cn1ncc2c(NCCc3ccccc3)nc(SCCN3CCOCC3)nc21)c1ccccc1` (stereo unspecified), the inhibition [29] is reported as “inactive”.
For `C(=C/n1ncc2c(NCCc3ccccc3)ncnc21)/c1ccccc1`, the Ki [30] was 9.75 µM and the inhibition [29] was “inactive”.
For `CSc1nc(NCCc2ccccc2)c2cnn(CC(Cl)c3ccccc3)c2n1` (stereo unspecified), the Activity (HUVEC [31]) was “Toxic”.
